Among the test systems are RPMI-8226 leukemia; UACC-62 melanoma; M14 melanoma; NCI-H23 lung; NCI-H226 lung; RXF 393 renal; HCT-15 colon; MDA-MB-231 breast; DU-145 prostate; SK-MEL-28 melanoma.
Assay in all cases: DTP human tumour cell line panel, 48 h

A word on the TGI: it is the concentration at which net growth stops. A higher TGI goes with less potent growth arrest. As usually defined, the GI50 is the concentration giving 50% growth inhibition.

Where “and” joins values, the source holds several entries; their conditions need not be identical. Equal entries are not always repeated.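 Five concentrations, 48 hours, 96-well plates. Abbreviation: GI50, concentration required for 50% inhibition of growth. TGI is the concentration that stops growth completely.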

Take `Cc1ccccc1N=Nc1ccc(N=Nc2c(O)ccc3ccccc23)c(C)c1`: the concentration for total growth inhibition (TGI) in the test on RPMI-8226 leukemia, with UACC-62 melanoma, with M14 melanoma, in the test with NCI-H23 lung, with NCI-H226 lung and in the test with RXF 393 renal was greater than 100 µM throughout. In addition, the concentration for total growth inhibition (TGI) in the test with HCT-15 colon, in the test on MDA-MB-231 breast, in the test on DU-145 prostate and in the test with SK-MEL-28 melanoma was greater than 100 µM throughout.

With `Cc1c2cc[n+](CCN3CCCCC3)cc2c(C)c2c1[nH]c1ccc(O)cc12`, the GI50 is 1.74 µM in the test with RPMI-8226 leukemia; 11.4 µM with UACC-62 melanoma; 2.6 µM in the test with NCI-H23 lung; 1.47 µM and 3.75 µM in the test on NCI-H226 lung; 3.09 µM in the test on RXF 393 renal; 9.29 µM with SK-MEL-28 melanoma. The TGI in the test with RPMI-8226 leukemia is 23.3 µM and 11.6 µM; with UACC-62 melanoma it was 36.7 µM and 31.2 µM; with M14 melanoma it was 50.4 µM; in the test with NCI-H23 lung it was 53.1 µM and 27.7 µM; in the test with NCI-H226 lung it was 55.1 µM and 32.7 µM; with RXF 393 renal it was 23.6 µM and 16 µM. Besides, the TGI in the test on HCT-15 colon is 75 µM and > 100 µM; with MDA-MB-231 breast, 34.7 µM; in the test on DU-145 prostate, 11.5 µM; with SK-MEL-28 melanoma, 33.7 µM and > 45.9 µM.

On to `O=C(N=S(NC(=O)c1ccccc1)C(Cl)(Cl)Cl)c1ccccc1` (stereo unspecified), for which the concentration for total growth inhibition (TGI) is greater than 100 µM in the test with RPMI-8226 leukemia; greater than 100 µM in the test on UACC-62 melanoma; 30.7 µM in the test on M14 melanoma; 30 µM in the test with NCI-H23 lung; greater than 58.6 µM in the test on NCI-H226 lung; 18 µM with RXF 393 renal. Moreover, the concentration for total growth inhibition (TGI) with HCT-15 colon is 27 µM; in the test on MDA-MB-231 breast, greater than 100 µM; with DU-145 prostate, greater than 100 µM; in the test with SK-MEL-28 melanoma, 66.7 µM.

Turning to `CC(C)[C@@H]1NC(=O)[C@H]2N=C(O[C@@H]2C)[C@@H]2CCCN2C(=O)[C@H](Cc2ccccc2)NC(=O)[C@@H]2CSC(=N2)[C@@H](Cc2ccccc2)NC(=O)[C@@H]2CSC1=N2`, the TGI was 32.1 µM with RPMI-8226 leukemia; greater than 50 µM with UACC-62 melanoma; greater than 50 µM with M14 melanoma; greater than 50 µM with NCI-H23 lung; greater than 50 µM with NCI-H226 lung; greater than 50 µM in the test with RXF 393 renal. Also, the concentration for total growth inhibition (TGI) in the test on HCT-15 colon, in the test with MDA-MB-231 breast, in the test with DU-145 prostate and in the test with SK-MEL-28 melanoma was greater than 50 µM in each case.

Consider `CC1=C2C(=O)c3ccccc3C(=O)[C@H]2[C@H]2CCO[C@H]2O1`, for which the total growth inhibition concentration (TGI) in the test on RPMI-8226 leukemia was 70.4 µM; in the test on UACC-62 melanoma it was 39.7 µM; in the test on M14 melanoma it was 40.2 µM; in the test on NCI-H23 lung, 45.6 µM; with NCI-H226 lung it was greater than 100 µM; in the test on RXF 393 renal, 31.3 µM. Further, the TGI with HCT-15 colon came out at 86 µM; in the test with MDA-MB-231 breast, 51.7 µM; with DU-145 prostate it was 47 µM; in the test with SK-MEL-28 melanoma it was 63.1 µM.

On to `CCOC(=O)CSc1nc(-c2ccccc2)c(C#N)c(=O)[nH]1`, for which the TGI in the test with RPMI-8226 leukemia, with UACC-62 melanoma, in the test with M14 melanoma, with NCI-H23 lung, in the test on NCI-H226 lung and in the test on RXF 393 renal was greater than 100 µM throughout. For the same compound, the concentration for total growth inhibition (TGI) in the test on HCT-15 colon, with MDA-MB-231 breast, in the test on DU-145 prostate and in the test with SK-MEL-28 melanoma was greater than 100 µM in each case.

Turning to `Fc1ccc2nc3n(c2c1)C(c1c(F)cccc1F)SC3` (stereo unspecified), the TGI with RPMI-8226 leukemia, with UACC-62 melanoma, with M14 melanoma, with NCI-H23 lung, in the test on NCI-H226 lung and in the test on RXF 393 renal was greater than 100 µM each time. In addition, the TGI in the test on HCT-15 colon, in the test on MDA-MB-231 breast, with DU-145 prostate and with SK-MEL-28 melanoma was greater than 100 µM throughout.

On to `CC(=O)OC1C(O)COC(O[C@H]2CC[C@]34C[C@]35CC[C@]3(C)C([C@@]6(C)CC[C@@H](C(C)(C)O)O6)[C@@H](O)C[C@@]3(C)C5C[C@H](OC3OCC(O)C(O)C3O)[C@H]4C2(C)C)C1OC1OCC(O)C(O)C1O` (stereo partly specified), for which the concentration for total growth inhibition (TGI) in the test on RPMI-8226 leukemia, with UACC-62 melanoma, in the test on M14 melanoma, in the test with NCI-H23 lung, in the test with NCI-H226 lung and in the test on RXF 393 renal was greater than 100 µM each time. The TGI in the test with HCT-15 colon, with MDA-MB-231 breast, with DU-145 prostate and in the test with SK-MEL-28 melanoma was greater than 100 µM throughout.

With `COc1ccc(NC2Oc3cc4c(cc3C(c3cccc(OC)c3OC)C2C)OCO4)cc1` (stereo unspecified), the TGI with RPMI-8226 leukemia is greater than 100 µM; with UACC-62 melanoma, greater than 100 µM; in the test on M14 melanoma it was greater than 100 µM; in the test on NCI-H23 lung, 79.5 µM; with NCI-H226 lung, greater than 100 µM; with RXF 393 renal, 50.2 µM. The TGI with HCT-15 colon is greater than 100 µM; with MDA-MB-231 breast, greater than 100 µM; in the test on DU-145 prostate it was greater than 100 µM; with SK-MEL-28 melanoma, 85.7 µM.

Turning to `CCOC(=O)/C(C(=S)Nc1ccccc1)=C(/N)N1CCCC1`, the TGI with RPMI-8226 leukemia, with UACC-62 melanoma, in the test with M14 melanoma, with NCI-H23 lung, in the test on NCI-H226 lung and with RXF 393 renal was greater than 100 µM in each case. Besides, the concentration for total growth inhibition (TGI) in the test with HCT-15 colon, in the test with MDA-MB-231 breast, with DU-145 prostate and in the test on SK-MEL-28 melanoma was greater than 100 µM each time.

Regarding `COC(=O)[C@@H]1CN(C(=O)CCc2ccccc2)C(=O)N1C(=O)OCc1ccccc1`, the concentration for total growth inhibition (TGI) in the test with RPMI-8226 leukemia, with UACC-62 melanoma, in the test on M14 melanoma, in the test on NCI-H23 lung, with NCI-H226 lung and in the test with RXF 393 renal was greater than 100 µM in each case. The TGI with HCT-15 colon, with MDA-MB-231 breast, in the test with DU-145 prostate and in the test on SK-MEL-28 melanoma was greater than 100 µM throughout.

With `O=C(NCc1cccnc1)NCc1cccnc1`, the TGI in the test on RPMI-8226 leukemia, in the test on UACC-62 melanoma, in the test on M14 melanoma, in the test with NCI-H23 lung, in the test on NCI-H226 lung and with RXF 393 renal was greater than 100 µM throughout. The TGI in the test on HCT-15 colon, in the test with MDA-MB-231 breast, with DU-145 prostate and in the test with SK-MEL-28 melanoma was greater than 100 µM each time.

With `CN(C)c1ccc(N=Nc2ccc3nc[nH]c3c2)cc1`, the total growth inhibition concentration (TGI) was 59.2 µM with RPMI-8226 leukemia; 48.7 µM in the test on UACC-62 melanoma; 46.8 µM in the test on M14 melanoma; greater than 100 µM in the test with NCI-H23 lung; 82.1 µM with NCI-H226 lung; 88.7 µM in the test on RXF 393 renal. The TGI came to 70.4 µM with HCT-15 colon, 39.4 µM in the test on MDA-MB-231 breast, 77.3 µM in the test with DU-145 prostate and 25.6 µM in the test with SK-MEL-28 melanoma.

For `CC1=C(N2CC2)C(=O)c2nc3n(c2C1=O)CCC3OC(=O)CCl` (stereo unspecified), the concentration for total growth inhibition (TGI) came out at 1.7 µM with RPMI-8226 leukemia; 0.0696 µM with UACC-62 melanoma; 0.0814 µM in the test with M14 melanoma; 0.0825 µM in the test on NCI-H23 lung; 0.17 µM with NCI-H226 lung; 0.069 µM with RXF 393 renal. Also, the concentration for total growth inhibition (TGI) was 0.0825 µM in the test with HCT-15 colon, greater than 100 µM in the test on MDA-MB-231 breast, 0.19 µM in the test with DU-145 prostate and 0.141 µM in the test with SK-MEL-28 melanoma.

Take `NC(N)=N/N=C/c1c(-c2ccccc2)nc2n1ccc1nc(-c3ccccc3)c(/C=N/N=C(N)N)n12`: the TGI in the test with RPMI-8226 leukemia, with UACC-62 melanoma, in the test with M14 melanoma, in the test on NCI-H23 lung, with NCI-H226 lung and in the test with RXF 393 renal was greater than 100 µM throughout. For the same compound, the TGI in the test with HCT-15 colon, in the test with MDA-MB-231 breast, with DU-145 prostate and in the test on SK-MEL-28 melanoma was greater than 100 µM throughout.

In the case of `Cc1ccc(N2C(=O)C3c4[nH]c5ccccc5c4C4CCC(C(C)(C)C)CC4C3C2=O)cc1` (stereo unspecified), the total growth inhibition concentration (TGI) in the test on RPMI-8226 leukemia is greater than 41.5 µM; in the test on UACC-62 melanoma, 31 µM; with M14 melanoma, 35.6 µM; with NCI-H23 lung, 32.4 µM; in the test on NCI-H226 lung, 33.2 µM; in the test on RXF 393 renal, 22.1 µM. The total growth inhibition concentration (TGI) in the test with HCT-15 colon is greater than 100 µM; with MDA-MB-231 breast it was 15.8 µM; in the test with DU-145 prostate, 5.82 µM; in the test with SK-MEL-28 melanoma, 49 µM.

Regarding `N#C/C(=C\c1ccccc1)C(=O)Nc1nnc(-c2ccccc2)o1`, the TGI with RPMI-8226 leukemia is 62.6 µM; in the test on UACC-62 melanoma, 53.7 µM; in the test on M14 melanoma it was greater than 100 µM; with NCI-H23 lung, greater than 100 µM; in the test on NCI-H226 lung, greater than 100 µM; with RXF 393 renal it was greater than 100 µM. Also, the TGI in the test with HCT-15 colon, with MDA-MB-231 breast, with DU-145 prostate and with SK-MEL-28 melanoma was greater than 100 µM throughout.

Turning to `COc1cc2c(c(OC)c1OC)C(=O)[C@H](O)[C@H]2NC(N)=O`, the concentration for total growth inhibition (TGI) is greater than 100 µM in the test with RPMI-8226 leukemia; 48.5 µM in the test on UACC-62 melanoma; greater than 100 µM in the test with M14 melanoma; greater than 100 µM in the test with NCI-H23 lung; greater than 100 µM in the test with NCI-H226 lung; greater than 100 µM with RXF 393 renal. Further, the TGI with HCT-15 colon, in the test on MDA-MB-231 breast, in the test with DU-145 prostate and with SK-MEL-28 melanoma was greater than 100 µM in each case.

Take `CC1CCCc2c(C#N)c(N)nc(-c3ccc(Cl)cc3)c21` (stereo unspecified): the TGI in the test with RPMI-8226 leukemia came out at 39.2 µM; with UACC-62 melanoma, 38.2 µM; in the test with M14 melanoma, 66.4 µM; in the test on NCI-H23 lung, 93.7 µM; in the test on NCI-H226 lung, 43.3 µM; with RXF 393 renal it was 21.5 µM. In addition, the total growth inhibition concentration (TGI) in the test on HCT-15 colon is greater than 100 µM; in the test on MDA-MB-231 breast, 81.8 µM; in the test with DU-145 prostate, greater than 100 µM; in the test with SK-MEL-28 melanoma, greater than 100 µM.

For the origin of these results see PubChem BioAssay (NCI).
